The values that follow are results of earlier work, collected in patent US7410504B2, “Adducts based on cyclic compounds and the use thereof as tanning agents and curing agents” (BASF Aktiengesellschaft, priority 2003, dated 2008).

Bounds are passed on as bounds.

For the data set the following is noted: small amounts of glutaraldehyde, from 0.5 to 0.9% by weight based on the pelt weight.

As to `O=CCCCC=O` [glutaraldehyde], the Shrinkage temperature is at most 70 °C.
